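1) Cells in 96-well plates. 2) Compound, 48 h, 5 concentrations. 3) Linear interpolation between surrounding doses. 4) Unreached endpoint = highest concentration. GI50 is the concentration that inhibits growth by half.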 Active and inactive are the calls of the source. Rule as the data show it: active = GI50 up to about 1.1 µM and inactive = higher.
Tests used:
Assay in all cases: NCI anticancer screen, dose series, 48 h
[1] = system: OVCAR-3
[2] = system: IGROV-1
[3] = system: MOLT-4
[4] = system: SK-MEL-2
[5] = system: SW-620
[6] = system: SN12C
[7] = system: SK-MEL-28
[8] = system: SF-539
[9] = system: UACC-62
[10] = system: SNB-75
[11] = system: Malme-3M
[12] = system: UACC-257
[13] = system: TK-10
[14] = system: NCI-H460
[15] = system: SF-295
[16] = system: A498

Measured: GI50

NC(=O)c1ncn(CCN2CCN(C(=O)NCCCCCCNC(=O)N3CCN(CCn4cnc(C(N)=O)c4N)CC3)CC2)c1N
inactive: [1] > 100 µM | [2] > 100 µM | [3] > 100 µM | [4] > 100 µM | [5] > 100 µM | [6] > 100 µM | [7] > 100 µM | [8] > 100 µM | [9] > 100 µM | [10] > 100 µM | [11] > 100 µM | [12] > 100 µM | [13] > 100 µM | [14] > 100 µM | [15] > 100 µM

Cc1ccc(C)c(N2C/C(=N\NC(=O)CC#N)C(c3nc4ccccc4s3)C(=O)C2=O)c1 (stereo not given)
inactive: [1] > 100 µM | [2] > 100 µM | [3] > 100 µM | [4] > 100 µM | [5] > 100 µM | [6] > 100 µM | [7] > 100 µM | [9] > 100 µM | [10] > 100 µM | [16] > 100 µM | [11] > 100 µM | [12] > 100 µM | [13] > 100 µM | [14] > 100 µM | [15] > 100 µM

CC(=O)Oc1ccccc1 [ACETIC ACID PHENYL ESTER]
inactive: [1] > 100 µM | [2] > 100 µM | [3] > 100 µM | [4] > 100 µM | [5] > 100 µM | [6] > 100 µM | [7] > 100 µM | [8] > 100 µM | [9] > 100 µM | [10] > 100 µM | [16] > 100 µM | [11] > 100 µM | [12] > 100 µM | [14] > 100 µM | [15] > 100 µM

CCCC1C(=O)C(CC)Cc2c(OC)ccc(OC)c21 (stereo not given)
inactive: [1] > 100 µM | [2] > 100 µM | [3] > 100 µM | [4] > 100 µM | [5] > 100 µM | [6] > 100 µM | [7] > 100 µM | [8] > 100 µM | [9] > 100 µM | [10] > 100 µM | [11] > 100 µM | [12] > 100 µM | [13] > 100 µM | [14] > 100 µM | [15] > 100 µM

ON1CCc2c([nH]c3ccccc23)C1c1ccc(Cl)cc1 (stereo not given)
inactive: [1] 27.4 µM | [3] 21.4 µM | [4] 23.1 µM | [5] 33.2 µM | [6] 26.1 µM | [7] 36.4 µM | [8] 30.5 µM | [9] 31 µM | [10] 30.3 µM | [16] 33.1 µM | [11] 29.4 µM | [12] 30.1 µM | [13] 43.9 µM | [15] 27.7 µM

CCN(CC)CC(=O)N1CCc2c([nH]c3ccccc23)C1c1cccnc1 (stereo not given)
inactive: [1] > 100 µM | [2] > 100 µM | [3] > 100 µM | [5] > 100 µM | [6] > 100 µM | [7] > 100 µM | [8] > 100 µM | [9] > 100 µM | [10] 73.6 µM | [16] > 100 µM | [12] > 100 µM | [13] > 100 µM | [14] > 100 µM | [15] > 100 µM

COc1cc(C)c2c(c1)CN1CN2Cc2cc(OC)cc(C)c21
inactive: [1] 25.5 µM | [2] 97.1 µM | [3] 45 µM | [4] 45.6 µM | [5] > 100 µM | [6] 46.3 µM | [8] > 100 µM | [9] 29.9 µM | [10] 11.2 µM | [11] 67.9 µM | [14] 64.6 µM | [15] 52.4 µM

N#CCc1cccc(CC#N)c1Br
inactive: [1] > 100 µM | [2] > 100 µM | [3] > 100 µM | [4] > 100 µM | [5] > 100 µM | [6] > 100 µM | [8] > 100 µM | [9] > 100 µM | [10] > 100 µM | [11] > 100 µM | [12] > 100 µM | [14] > 100 µM | [15] > 100 µM

NC(=O)N/N=C/C(=C/Nc1ccccc1)[N+](=O)[O-]
inactive: [1] > 100 µM | [2] > 100 µM | [3] 93.8 µM | [5] > 100 µM | [6] > 100 µM | [7] > 100 µM | [9] > 100 µM | [12] > 100 µM | [13] > 100 µM | [14] 89.1 µM | [15] > 100 µM

Cn1c2cccc3nnc4cccc(c4c32)n1C
inactive: [1] > 100 µM | [2] > 100 µM | [3] > 100 µM | [4] > 100 µM | [5] > 100 µM | [6] > 100 µM | [7] > 100 µM | [8] > 100 µM | [9] > 100 µM | [16] > 100 µM | [11] > 100 µM | [12] > 100 µM | [14] > 100 µM | [15] > 100 µM

COc1nc(NC2OC(COC(C)=O)C(OC(C)=O)C(OC(C)=O)C2OC(C)=O)c2c(OC(C)=O)cc(=O)oc2n1 (stereo not given)
inactive: [1] > 100 µM | [2] > 100 µM | [3] > 100 µM | [4] > 100 µM | [5] > 100 µM | [6] > 100 µM | [8] > 100 µM | [9] > 100 µM | [10] > 100 µM | [16] 15.9 µM | [11] > 100 µM | [12] > 100 µM | [13] > 100 µM | [14] 13.8 µM | [15] > 100 µM

O=C(NC1C2CC3CC(C2)CC1C3)c1ccncn1 (stereo not given)
inactive: [1] > 100 µM | [2] > 100 µM | [4] > 100 µM | [5] > 100 µM | [6] > 100 µM | [7] > 100 µM | [8] > 100 µM | [9] > 100 µM | [10] > 100 µM | [16] > 100 µM | [11] > 100 µM | [12] > 100 µM | [14] > 100 µM | [15] > 100 µM

COC(=O)C1C2CC3C(OC(=O)C31)C2OC(=O)[C@](OC)(c1ccccc1)C(F)(F)F (stereo not given in full)
inactive: [1] > 100 µM | [2] > 100 µM | [3] > 100 µM | [4] > 100 µM | [5] > 100 µM | [6] > 100 µM | [7] > 100 µM | [8] > 100 µM | [10] > 100 µM | [16] > 100 µM | [11] > 100 µM | [12] > 100 µM | [13] > 100 µM | [14] > 100 µM

CCOC(=O)c1cnc2c(ccc3ncccc32)c1NCCCN(CC)CC
inactive: [1] > 100 µM | [2] > 100 µM | [3] 23 µM | [4] > 100 µM | [5] 41.9 µM | [7] 50 µM | [8] > 10 µM | [9] > 100 µM | [16] > 100 µM | [11] > 100 µM | [12] > 100 µM | [13] > 100 µM | [14] 35.2 µM | [15] 86.7 µM

Source: ChEMBL document CHEMBL1201862, “PubChem BioAssay data set” (2004)
